# Like-named read-outs stand apart in the source and are kept apart here.
# Key:
# [1] = test system: HBL-100 (breast) cells; experiment: Growth inhibition assay (NCI protocol), HBL-100; format: cell-based, human; details: 48 h exposure
# Excerpt: (§1) We studied the antiproliferative activity of α,β-unsaturated ketones (2 and 6) and steroidal pyrimidines (3 and 7) against human cell lines following the guidelines of the National Cancer Institute. For the tests we selected five human solid tumor cell lines from diverse origins and one human fibroblast cell line as a model of non-tumor cells. These cell lines were chosen as representative of drug sensitive (A549, HBL-100, and HeLa) and drug resistant (T-47D and WiDr) monolayer cultures based on previous studies. The steroidal anticancer drugs abiraterone and galeterone were also tested for comparison purposes. […] This is a relevant finding, since our compounds are non-toxic to healthy cells, whilst the steroidal anticancer drugs inhibit the growth of fibroblasts at GI50 values as low as 4.5–5 µM.
# (§2) The following densities (cells per well) were used: 2500 (A549, HBL-100, HeLa and SW1573), 5000 (T-47D, WiDr and SW1573/PGP), and 7000 (BJ-hTERT). […] Abiraterone and galeterone were used as reference drugs for antiproliferative tests, verapamil was used as a P-gp transport inhibitor in SW1573/Pgp experiments, and their stock solutions were prepared in DMSO at 40 mM. Paclitaxel and vinblastine were used as positive controls in SW1573/Pgp experiments and were initially dissolved in DMSO at 4 mM. For each test compound, the cells were exposed to serial decimal dilutions in the range of 0.001–100 μM for a period of 48 h. Cell culture medium containing verapamil was prepared by adding the final concentration of verapamil of 10 μM. For each product GI50 values were calculated according to the NCI formulas.
# [2] = test system: BJ-hTERT human fibroblast cells; experiment: Growth inhibition assay (NCI protocol), BJ-hTERT fibroblasts; format: cell-based; details: 48 h exposure, non-tumor cells
# Excerpt: as §1, §2
# [3] = test system: SW1573 (non-small cell lung) cells; experiment: Growth inhibition assay, SW1573 wild type; format: cell-based, human; details: 48 h, without verapamil, read-out: GI50 SW1573 w/o Verapamil
# Excerpt: (§3) Next, we studied if the compounds could be substrates for P-glycoprotein 1 (P-gp). P-gp is an important protein of the cell membrane that pumps xenobiotics out of cells. One of the resistance mechanisms to anticancer drugs involves the overexpression of P-gp by cancer cells, rendering these cancers multidrug resistant. Therefore, it is relevant to know whether compounds are substrates for P-gp or not. As a model to test the effect of P-gp overexpression in our compounds, we used a cell line-based assay. We selected one wild type human lung cancer cell line (SW1573) and its P-gp overexpressing variant (SW1573/PGP). In this test, cells were exposed to the compounds for 48 h in the absence or the presence of 10 µM verapamil, a well-known P-gp inhibitor [20].
# (§4) The human solid tumor cell lines A549 (non-small cell lung), HBL-100 (breast), and HeLa (cervix), SW1573 (non-small cell lung), and its P-gp overexpressing variant (SW1573/Pgp), T-47D (breast), and WiDr (colon) were used in this study. These cell lines used in this study were kindly provided by Dr. Godefridus J. Peters (Cancer Center Amsterdam, Vrije Universiteit, Amsterdam, The Netherlands). BJ-hTERT human fibroblast cells were given by Dr. Raimundo Freire (Universidad de La Laguna, Canary Islands). All cells were grown in RPMI 1640 supplemented with 1 mM glutamine, 5% FBS and antibiotics. Cells were grown at 37 °C in a humidified atmosphere of 5% CO2 and maintained at low passage.
# (§5) The antiproliferative activity was tested in vitro against human cancer cells using the protocol of the National Cancer Institute (NCI) of the USA16 with minor modifications. The following densities (cells per well) were used: 2500 (A549, HBL-100, HeLa and SW1573), 5000 (T-47D, WiDr and SW1573/PGP), and 7000 (BJ-hTERT). Samples for testing were dissolved initially in DMSO at 40 mM, i.e., 400 times the maximum test concentration. Abiraterone and galeterone were used as reference drugs for antiproliferative tests, verapamil was used as a P-gp transport inhibitor in SW1573/Pgp experiments, and their stock solutions were prepared in DMSO at 40 mM. Paclitaxel and vinblastine were used as positive controls in SW1573/Pgp experiments and were initially dissolved in DMSO at 4 mM. For each test compound, the cells were exposed to serial decimal dilutions in the range of 0.001–100 μM for a period of 48 h. Cell culture medium containing verapamil was prepared by adding the final concentration of verapamil of 10 μM. For each product GI50 values were calculated according to the NCI formulas.
# [4] = test system: T-47D (breast) cells; experiment: Growth inhibition assay (NCI protocol), T-47D; format: cell-based, human; details: 48 h exposure
# Excerpt: as §1, §2
# [5] = test system: SW1573/PGP cells; experiment: in vitro
# Excerpt: as §3, §4, §5
# [6] = test system: HeLa (cervix) cells; experiment: Growth inhibition assay (NCI protocol), HeLa; format: cell-based, human; details: 48 h exposure
# Excerpt: as §1, §2
# [7] = test system: WiDr (colon) cells; experiment: Growth inhibition assay (NCI protocol), WiDr; format: cell-based, human; details: 48 h exposure
# Excerpt: as §1, §2
# [8] = test system: A549 (non-small cell lung) cells; experiment: Growth inhibition assay (NCI protocol), A549; format: cell-based, human; details: 48 h exposure
# Excerpt: as §1, §2
# [9] = test system: P-gp; experiment: in vitro; details: human
# Excerpt: as §3, §4, §5
# [10] = target: T1, P-glycoprotein 1 (P-gp) (Homo sapiens, UniProt P08183); experiment: P-glycoprotein assay (SW1573/PGP vs SW1573, resistance factor); format: cell-based; details: for Rf w Verapamil / Rf w/o Verapamil: ratio between GI50 values in SW1573/PGP and SW1573 cells; for Rf w Verapamil: with 10 µM verapamil; for Rf w/o Verapamil: without verapamil
# T1 construct: its P-gp overexpressing variant (SW1573/PGP); endogenous in cells; host or cells: SW1573 and SW1573/PGP (SW1573/Pgp) human non-small cell lung cancer cells, provided by Dr. G. J. Peters (Amsterdam)
# T1 sequence (P08183 whole entry): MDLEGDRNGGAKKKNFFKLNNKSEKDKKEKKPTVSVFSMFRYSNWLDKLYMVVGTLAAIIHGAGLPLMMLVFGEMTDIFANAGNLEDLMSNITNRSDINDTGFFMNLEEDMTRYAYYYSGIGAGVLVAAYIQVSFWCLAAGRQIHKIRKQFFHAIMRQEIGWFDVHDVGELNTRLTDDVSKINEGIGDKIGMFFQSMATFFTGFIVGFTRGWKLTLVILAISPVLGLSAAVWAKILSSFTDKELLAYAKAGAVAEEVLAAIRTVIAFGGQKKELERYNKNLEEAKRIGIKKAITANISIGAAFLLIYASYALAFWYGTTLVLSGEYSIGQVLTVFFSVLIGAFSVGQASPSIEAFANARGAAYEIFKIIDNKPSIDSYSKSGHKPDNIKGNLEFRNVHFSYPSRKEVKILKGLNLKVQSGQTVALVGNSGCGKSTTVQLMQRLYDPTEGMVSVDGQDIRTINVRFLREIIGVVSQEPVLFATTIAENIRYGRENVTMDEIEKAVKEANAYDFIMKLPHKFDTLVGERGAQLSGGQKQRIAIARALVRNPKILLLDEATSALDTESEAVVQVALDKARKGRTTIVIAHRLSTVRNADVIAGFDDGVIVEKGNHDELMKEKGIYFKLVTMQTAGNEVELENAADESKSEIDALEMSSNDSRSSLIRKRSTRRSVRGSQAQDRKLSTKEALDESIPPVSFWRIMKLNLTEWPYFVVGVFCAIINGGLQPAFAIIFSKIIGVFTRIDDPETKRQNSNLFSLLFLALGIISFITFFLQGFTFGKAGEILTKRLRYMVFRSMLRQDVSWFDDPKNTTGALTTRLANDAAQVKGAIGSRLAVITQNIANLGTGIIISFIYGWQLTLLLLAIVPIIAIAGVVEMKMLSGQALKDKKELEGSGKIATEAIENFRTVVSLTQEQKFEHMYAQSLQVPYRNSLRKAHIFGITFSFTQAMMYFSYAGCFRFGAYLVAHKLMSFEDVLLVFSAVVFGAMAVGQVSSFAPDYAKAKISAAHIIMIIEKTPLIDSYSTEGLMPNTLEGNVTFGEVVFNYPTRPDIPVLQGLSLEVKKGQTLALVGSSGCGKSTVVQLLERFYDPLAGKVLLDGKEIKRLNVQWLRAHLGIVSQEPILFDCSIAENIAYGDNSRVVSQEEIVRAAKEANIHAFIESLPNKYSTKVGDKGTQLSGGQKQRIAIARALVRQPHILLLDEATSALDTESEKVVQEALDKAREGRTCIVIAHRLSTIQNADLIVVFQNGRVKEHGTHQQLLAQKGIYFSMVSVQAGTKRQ
# Excerpt: as §3, §5
Compound,GI50 [1],GI50 [2],GI50 [3],GI50 [4],GI50 [5],GI50 [6],GI50 [7],GI50 [8],"GI50 ([1]; Homo sapiens, HBL-100)","GI50 ([2]; Homo sapiens, Fibroblast)","GI50 ([4]; Homo sapiens, T47D)","GI50 ([6]; Homo sapiens, HeLa)","GI50 ([7]; Homo sapiens, WiDr)","GI50 ([8]; Homo sapiens, A549)","GI50 ([3]; Homo sapiens, SW1573)",GI50 at 48 h [9],"substrate for P-gp ([10]; SW1573 vs SW1573/PGP, with or without 10 µM verapamil)",Rf w Verapamil [10],Rf w/o Verapamil [10],melting point
"20-Oxopregna-5,16-dien-3β-yl Acetate [Compound 6]",64 ± 1.6 µM,> 100 µM,72 ± 10 µM,29 ± 4.5 µM,> 100 µM,3.6 ± 0.4 µM,37 ± 2.1 µM,26 ± 5.2 µM,–,–,–,–,–,–,–,–,–,–,–,–
"C[C@]12CC[C@H](O)CC1=CC[C@@H]1[C@@H]2CC[C@]2(C)C(c3cccnc3)=CC[C@@H]12 [Abiraterone, abiraterone, reference compound]",–,–,–,–,–,–,–,–,> 100 µM,4.5 ± 1 µM,24 ± 4.5 µM,7.9 ± 0.5 µM,42 ± 7.7 µM,95 ± 0.8 µM,–,–,–,–,–,–
"C[C@]12CC[C@H]3[C@@H](CC=C4C[C@@H](O)CC[C@@]43C)[C@@H]1CC[C@@H]2C(=O)/C=C/c1ccccc1 [Compound 2, (E)-21-benzyliden-3β-hydroxypregn-5-en-20-one]",–,–,–,–,–,–,–,–,19 ± 3.7 µM,> 100 µM,9.9 ± 3.5 µM,3.3 ± 0.3 µM,6.3 ± 0.5 µM,23 ± 1.6 µM,23 ± 0.2 µM,29 ± 5.5 µM,not substrates for P-gp,1.5,1.2,–
"C[C@]12CCC3C(CC=C4C[C@@H](O)CC[C@@]43C)C1CCC2C1=CC(c2ccccc2)NC(=N)N1 (stereo partly drawn) [Compound 3a, 17β-(2′-imino-1′,3′,6′-trihydro-6′-phenylpyrimidin-4′-yl)-androst-5-en-3β-ol]",–,–,–,–,–,–,–,–,23 ± 2.8 µM,> 100 µM,8.8 ± 2.2 µM,6.1 ± 1.2 µM,8.3 ± 1.1 µM,4.4 ± 1 µM,6.9 ± 0.5 µM,10 ± 4.2 µM,–,0.7,1.5,128 °C
"C[C@]12CCC3C(CC=C4C[C@@H](O)CC[C@@]43C)C1CCC2C1=CC(c2ccccc2)NC(=O)N1 (stereo partly drawn) [Compound 3b, 17β-(1′,3′,6′-trihydro-2′-oxo-6′-phenylpyrimidin-4′-yl)-androst-5-en-3β-ol]",–,–,–,–,–,–,–,–,16 ± 1.3 µM,97 ± 5.9 µM,15 ± 1.3 µM,14 ± 3.6 µM,15 ± 3.5 µM,11 ± 2.9 µM,–,34 ± 13 µM,–,1.6,1.9,108 to 110 °C
"C[C@]12CCC3C(CC=C4C[C@@H](O)CC[C@@]43C)C1CCC2C1=CC(c2ccccc2)NC(=S)N1 (stereo partly drawn) [Compound 3c, 17β-(1′,3′,6′-trihydro-6′-phenyl-2′-thioxopyrimidin-4′-yl)-androst-5-en-3β-ol]",–,–,–,–,–,–,–,–,45 ± 7.9 µM,> 100 µM,13 ± 2.3 µM,11 ± 1.5 µM,9.2 ± 1.6 µM,7.7 ± 1 µM,12 ± 2.7 µM,38 ± 6.1 µM,–,1.8,3.2,208 to 210 °C

# From article PMC6832952, “Synthesis and Evaluation of Pyrimidine Steroids as Antiproliferative Agents” (Molecules, 2019)
